Patent US20100048594A1, “USE OF CYTOHESIN INHIBITORS FOR CHEMICALLY INDUCING LONGEVITY” (RHEINISCHE FRIEDRICH-WILHELMS UNIVERSITAT, priority 2006, published 2010)

What was measured:
Akt = experiment: Insulin-stimulated phosphorylation of Akt in mouse liver after feeding (immunoblot); type: in vivo, C57BL/6 mice; conditions: food with 0.9 μmol/g compound for 3 days, 40 μg insulin i.p.
From the text: C57BL/6 mice (Charles River Laboratories) that had been kept in a pathogen-free animal facility, maintaining a 12-hour light/dark cycle, were used. The animals received standard mouse food (19% protein, 3.3% fat, 41.3% carbohydrates; ssniff Spezialdiäten GmbH) ad libitum. Male animals between the ages of 8 and 12 weeks were used.
A group of 6 C57BL/6 mice received standard mouse food mixed with 0.9 μmol/g of the compound according to formula (9) for a period of 3 days, while a control group of 6 animals received standard mouse food. The animals were then injected intraperitoneally with 100 μl normal saline solution (control group) or saline solution with 40 μg recombinant human insulin (Sigma). After 10 minutes the mice were anesthetized, the livers were removed and were lysed in lysate buffer (20 mM Tris-Cl, pH 7.5, 150 mM NaCl, 1 mM EDTA, 1 mM EGTA, 2.5 mM sodium pyrophosphate, 1 mM β-glycerophosphate, 1 mM sodium vanadate, 1% Triton X-100) and protease inhibitor mix HP (Serva).
Further, standardized quantities of protein were separated out using SDS-PAGE, and this protein was identified via immunoblotting, after being transferred to nitrocellulose membranes, with an antibody, against the phosphorylated protein Akt, pAkt (Thr308) (cell signaling). Visualization and evaluation were performed as described in Example 2.

[1] = tested on: Drosophila melanogaster flies; experiment: Lifespan of adult Drosophila melanogaster flies fed with compound (Kaplan-Meier analysis); type: in vivo; conditions: for Average Lifespan: ±margin of error
Protocol: The experiments were conducted on isogenic flies (Drosophila melanogaster) of the genotype white^1118, also called white^− or w^−, and mutants (w^1118; step^k08110/step^SH0323) (strain # 10770 from the public Bloomington Stock Center, genotype: step^k08110/CyO, URL http://flybase.bio.indiana.edu/reports/FBstOO10770.html; strain # FBst0103734 from the public Szeged Stock Center, genotype: step^SH0323/CyO, URL http://flybase.bio.indiana.edu/reports/FBst0103734.html), in which the Drosophila cytohesin steppke is mutated and therefore defective.
By crossing the two steppke alleles k08110 and SH0323 eight times with whites flies, an isogenic genetic background is produced, which permits a comparison of the lifespans between the genotypes of the type white^1118 and the mutants (w^1118; step^k08110/step^SH0323). The average lifespan of the wild type was approximately 25 days, while that of the mutants (w^1118; step^k08110/step^SH0323) was approximately 30 days.
To produce the special food, 32.5 g autolysed yeast (Fluka (Catalog No. 73145)) and 10 g agar (Difco (Catalog No. 281230)) were mixed with 300 ml water (demineralized, Roth (Catalog No. 3175)) and autoclaved at 120° C. for 20 minutes. The solution was cooled to 60° C., and 32.5 g α-D(+)-glucose monohydrate (Roth (Catalog No. 6887)) were added under stirring. 15 ml 10% (w/v) p-hydroxybenzoic acid methylester (Sigma (Catalog No. H3647)) solution dissolved in 70% (v/v) ethanol (Roth (Catalog No. 9065)) and 1.35 ml dimethylsulfoxide (DMSO, Roth (Catalog No. A994)) were then added. Water was then added to this basic solution to a volume of 450 ml, which was then held at a temperature of 60° C. For the control food, 50 ml of a 0.7% (v/v) DMSO solution in water were produced. For the food containing the compounds according to formulas (9) or (25), 0.2 ml of a 25 mM solution of the compounds according to formula (9) or (25) in 100% DMSO were added to 49.8 ml of a 0.3012% DMSO solution in water.
These 50 ml of the control solutions and the solutions containing the compounds according to formula (9) or (25) were each mixed with 450 ml of the basic solution, and were placed in 4 ml amounts in polystyrene containers (height 9.5 cm, diameter 2.4 cm, sealed with cotton wadding) to maintain the flies. After 24 hours, the cooled containers were sealed with cotton wadding and stored at 4° C.
The final concentration of the food components in the control food was 6.5% (w/v) autolysed yeast, 6.5% (w/v) α-D(+)-glucose monohydrate, 2% (w/v) agar, 0.3% (w/v) p-hydroxybenzoic acid methylester, 2.1% ethanol (v/v), 0.34% (v/v) DMSO.
The final concentration of the food components in the food containing the compound according to formula (9) was 6.5% (w/v) autolysed yeast, 6.5% (w/v) α-D(+)-glucose monohydrate, 2% (w/v) agar, 0.3% (w/v) p-hydroxybenzoic acid methylester, 2.1% ethanol (v/v), 0.34% (v/v) DMSO, 10 μM compound according to formula (9).
The final concentration of the food components in the food containing the compound according to formula (25) was 6.5% (w/v) autolysed yeast, 6.5% (w/v) α-D(+)-glucose monohydrate, 2% (w/v) agar, 0.3% (w/v) p-hydroxybenzoic acid methylester, 2.1% ethanol (v/v), 0.34% (v/v) DMSO, 10 μM compound according to formula (25).
The larvae were maintained on standard fly food containing 1.1% (w/v) brewer's yeast (“Gewürzmühle Brecht” company), 5.43% (w/v) cornmeal, 0.53% (w/v) filamentous agar (“Gewürzmühle Brecht” company), 6.6% (v/v) sugar beet syrup (Grafschafter), 1.3% (v/v) ethanol (Roth company), 0.13% (w/v) p-hydroxybenzoic acid methylester (Sigma).
24 hours after emergence of the imagines, the adult flies, females and males were separated under a brief CO2 anesthetization lasting less than 2 minutes. During the 24 hours after emergence, the animals were fed using standard fly food. […]

Structure (SMILES): COc1nc(-c2ccc3c(c2)OCO3)n(-c2ccc(NC(=O)CSc3ccccc3)cc2)n1 [Compound (9)]
- inhibition of the phosphorylation of the protein Akt stimulated by insulin (Akt): approximately 40%
- increase in average lifespan as compared with the untreated control animals ([1]; control animals (w^1118), 10 μM compound in food, P<0.05): 11.5%
- Average Lifespan ([1]; genotype w^1118, female flies, 10 μM compound in food): 28.1 (±1.0) Days
- Average Lifespan ([1]; genotype w^1118, step^k08110/step^SH0323 mutants, female flies, 10 μM compound in food): 34.6 (±0.8) Days
- longer lifespan of treated mutants than untreated control animals ([1]; steppke mutants fed 10 μM compound versus untreated w^1118): 37.3%
- increase in the average lifespan of mutants by feeding ([1]; steppke mutants, 10 μM compound in food, versus untreated mutants, P<0.001): 15.3%
